{
  "source": "patent US20120178646A1",
  "about": "“HIGH THROUGHPUT METHOD AND SYSTEM FOR IN VIVO SCREENING” (ZF SCREENS B.V., priority 2009, published 2012)",
  "test_system": "Mycobacterium marinum strain E11",
  "assay": "Granuloma formation in zebrafish larvae after intrayolk injection with Mycobacterium marinum (COPAS XL fluorescence profiling)",
  "type": "in vivo",
  "details": "zebrafish embryos injected intrayolk at 16- to 256-cell stage, refreshed daily, screened at 5 dpi, confirmed by stereo fluorescence microscopy",
  "data": [
    {"smiles": "O=S(=O)(NCCNC/C=C/c1ccc(Br)cc1)c1cccc2cnccc12", "note": "[H89]", "values": [
      {"measurement": "presence of CherryFP-labeled granulomas in larvae", "setting": "exposed from 2 dpi to 10 μM in 0.5% DMSO", "value": "did not contain granulomas"}
    ]},
    {"smiles": "CC[C@@H](CO)NCCN[C@@H](CC)CO", "note": "[ethambutol]", "values": [
      {"measurement": "presence of CherryFP-labeled granulomas in larvae", "setting": "exposed from 2 dpi to 2 mM in water", "value": "did not contain granulomas"}
    ]}
  ]
}
